Laboratory results: ChEMBL document CHEMBL4507301 (2021)

What was measured:
[1] = target: Mitogen-activated protein kinase kinase kinase 15 (Homo sapiens) (UniProt Q6ZN16); conditions: Compound concentration 1000.0 nM
[2] = target: Serine/threonine-protein kinase TAO2 (Homo sapiens) (UniProt Q9UL54); conditions: Compound concentration 1000.0 nM
[3] = target: Serine/threonine-protein kinase 17B (Homo sapiens) (UniProt O94768); conditions: Compound concentration 1000.0 nM
[4] = target: Beta-2 adrenergic receptor (Homo sapiens) (UniProt P07550); conditions: Compound concentration 10.0 uM
[5] = target: Serine/threonine-protein kinase 32A (Homo sapiens) (UniProt Q8WU08); conditions: Compound concentration 1000.0 nM
[6] = system: Epidermal growth factor receptor (Homo sapiens), P00533 [L861Q]; conditions: Compound concentration 1000.0 nM
[7] = system: Epidermal growth factor receptor (Homo sapiens), P00533 [L858R,T790M]; conditions: Compound concentration 1000.0 nM
[8] = target: Sigma non-opioid intracellular receptor 1 (Homo sapiens) (UniProt Q99720); conditions: Compound concentration 10.0 uM
Chain of Sigma non-opioid intracellular receptor 1 (Homo sapiens) (Q99720 whole entry): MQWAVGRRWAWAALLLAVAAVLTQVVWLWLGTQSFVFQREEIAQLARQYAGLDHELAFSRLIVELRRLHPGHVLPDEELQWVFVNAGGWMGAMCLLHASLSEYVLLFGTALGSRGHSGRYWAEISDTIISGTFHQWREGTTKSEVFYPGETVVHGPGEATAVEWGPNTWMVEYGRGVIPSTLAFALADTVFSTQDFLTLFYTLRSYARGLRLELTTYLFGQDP

[9] = target: Alpha-1D adrenergic receptor (Homo sapiens) (UniProt P25100); conditions: Compound concentration 10.0 uM
[10] = target: Calcium/calmodulin-dependent protein kinase kinase 1 (Homo sapiens) (UniProt Q8N5S9); conditions: Compound concentration 1000.0 nM
[11] = target: Cyclin-dependent kinase 11A (Homo sapiens) (UniProt Q9UQ88); conditions: Compound concentration 1000.0 nM
[12] = target: Protein kinase C delta type (Homo sapiens) (UniProt Q05655); conditions: Compound concentration 1000.0 nM
[13] = target: Serine/threonine-protein kinase B-raf (Homo sapiens) (UniProt P15056); conditions: Compound concentration 1000.0 nM
Chain of Serine/threonine-protein kinase B-raf (Homo sapiens) (P15056 whole entry): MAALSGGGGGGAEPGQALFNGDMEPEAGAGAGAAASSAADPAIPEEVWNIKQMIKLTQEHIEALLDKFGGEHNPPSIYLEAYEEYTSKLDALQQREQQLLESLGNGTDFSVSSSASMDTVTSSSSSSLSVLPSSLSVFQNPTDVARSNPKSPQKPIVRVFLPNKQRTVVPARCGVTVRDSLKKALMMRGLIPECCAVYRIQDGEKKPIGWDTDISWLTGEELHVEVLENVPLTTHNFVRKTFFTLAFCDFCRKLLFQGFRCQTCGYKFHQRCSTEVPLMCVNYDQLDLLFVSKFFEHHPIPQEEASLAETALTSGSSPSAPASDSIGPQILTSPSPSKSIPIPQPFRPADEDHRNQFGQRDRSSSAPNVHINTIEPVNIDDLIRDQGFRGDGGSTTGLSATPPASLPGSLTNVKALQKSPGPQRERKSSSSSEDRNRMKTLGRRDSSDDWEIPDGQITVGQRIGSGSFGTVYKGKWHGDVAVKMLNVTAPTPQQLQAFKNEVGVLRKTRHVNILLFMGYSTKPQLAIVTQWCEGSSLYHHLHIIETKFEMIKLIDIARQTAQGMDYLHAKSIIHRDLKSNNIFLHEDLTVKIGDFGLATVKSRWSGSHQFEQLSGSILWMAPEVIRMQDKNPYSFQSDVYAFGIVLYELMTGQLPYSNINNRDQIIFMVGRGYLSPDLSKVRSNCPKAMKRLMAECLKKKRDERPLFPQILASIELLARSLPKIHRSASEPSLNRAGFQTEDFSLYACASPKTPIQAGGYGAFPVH

[14] = target: Serine/threonine-protein kinase 35 (Homo sapiens) (UniProt Q8TDR2); conditions: Compound concentration 1000.0 nM
[15] = target: Ephrin type-B receptor 3 (Homo sapiens) (UniProt P54753); conditions: Compound concentration 1000.0 nM
[16] = target: Kappa-type opioid receptor (Homo sapiens) (UniProt P41145); conditions: Compound concentration 10.0 uM
[17] = target: Ephrin type-A receptor 5 (Homo sapiens) (UniProt P54756); conditions: Compound concentration 1000.0 nM
[18] = target: Mitogen-activated protein kinase kinase kinase kinase 1 (Homo sapiens) (UniProt Q92918); conditions: Compound concentration 1000.0 nM
[19] = target: TGF-beta receptor type-1 (Homo sapiens) (UniProt P36897); conditions: Compound concentration 1000.0 nM
[20] = target: Ribosomal protein S6 kinase alpha-5 (Homo sapiens) (UniProt O75582); conditions: Compound concentration 1000.0 nM
[21] = target: Hepatocyte growth factor receptor (Homo sapiens) (UniProt P08581); conditions: Compound concentration 1000.0 nM
Chain of Hepatocyte growth factor receptor (Homo sapiens) (P08581 whole entry): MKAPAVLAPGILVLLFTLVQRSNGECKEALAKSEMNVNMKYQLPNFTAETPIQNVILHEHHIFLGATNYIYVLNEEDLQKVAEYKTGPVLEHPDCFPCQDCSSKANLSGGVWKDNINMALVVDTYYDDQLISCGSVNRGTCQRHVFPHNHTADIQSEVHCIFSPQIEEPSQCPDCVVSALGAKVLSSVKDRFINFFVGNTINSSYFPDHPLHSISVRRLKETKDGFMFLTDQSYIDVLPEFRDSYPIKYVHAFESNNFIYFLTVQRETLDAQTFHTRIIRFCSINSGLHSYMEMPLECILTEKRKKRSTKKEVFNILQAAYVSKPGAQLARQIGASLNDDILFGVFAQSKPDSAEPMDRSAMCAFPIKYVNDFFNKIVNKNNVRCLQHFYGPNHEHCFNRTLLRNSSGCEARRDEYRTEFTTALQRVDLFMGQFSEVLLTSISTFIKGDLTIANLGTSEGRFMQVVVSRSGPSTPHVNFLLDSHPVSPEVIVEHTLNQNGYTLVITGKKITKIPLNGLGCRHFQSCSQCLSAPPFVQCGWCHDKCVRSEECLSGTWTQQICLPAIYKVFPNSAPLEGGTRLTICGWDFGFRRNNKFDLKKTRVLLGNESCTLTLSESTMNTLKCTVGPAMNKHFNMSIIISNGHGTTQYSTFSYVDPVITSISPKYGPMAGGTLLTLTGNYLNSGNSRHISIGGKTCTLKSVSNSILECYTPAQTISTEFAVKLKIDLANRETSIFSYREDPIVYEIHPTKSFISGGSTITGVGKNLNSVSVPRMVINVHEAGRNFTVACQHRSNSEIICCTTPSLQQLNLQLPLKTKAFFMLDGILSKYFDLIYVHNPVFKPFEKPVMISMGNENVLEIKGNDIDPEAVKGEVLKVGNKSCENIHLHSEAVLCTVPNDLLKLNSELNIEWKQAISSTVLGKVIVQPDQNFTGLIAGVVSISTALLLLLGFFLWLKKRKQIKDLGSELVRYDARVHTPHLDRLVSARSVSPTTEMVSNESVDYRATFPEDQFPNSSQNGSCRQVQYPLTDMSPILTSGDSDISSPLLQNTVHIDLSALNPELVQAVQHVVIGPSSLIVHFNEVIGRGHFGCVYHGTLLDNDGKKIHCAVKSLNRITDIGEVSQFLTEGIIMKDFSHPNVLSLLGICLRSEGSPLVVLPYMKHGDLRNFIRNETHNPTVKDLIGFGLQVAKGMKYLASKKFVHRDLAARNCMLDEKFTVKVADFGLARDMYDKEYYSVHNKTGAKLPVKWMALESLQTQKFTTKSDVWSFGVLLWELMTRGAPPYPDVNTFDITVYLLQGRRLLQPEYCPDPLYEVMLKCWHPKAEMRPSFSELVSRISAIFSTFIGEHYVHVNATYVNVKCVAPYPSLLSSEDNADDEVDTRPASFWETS

[22] = target: Vascular endothelial growth factor receptor 1 (Homo sapiens) (UniProt P17948); conditions: Compound concentration 1000.0 nM
[23] = target: Activin receptor type-1 (Homo sapiens) (UniProt Q04771); conditions: Compound concentration 1000.0 nM
Chain of Activin receptor type-1 (Homo sapiens) (Q04771 whole entry): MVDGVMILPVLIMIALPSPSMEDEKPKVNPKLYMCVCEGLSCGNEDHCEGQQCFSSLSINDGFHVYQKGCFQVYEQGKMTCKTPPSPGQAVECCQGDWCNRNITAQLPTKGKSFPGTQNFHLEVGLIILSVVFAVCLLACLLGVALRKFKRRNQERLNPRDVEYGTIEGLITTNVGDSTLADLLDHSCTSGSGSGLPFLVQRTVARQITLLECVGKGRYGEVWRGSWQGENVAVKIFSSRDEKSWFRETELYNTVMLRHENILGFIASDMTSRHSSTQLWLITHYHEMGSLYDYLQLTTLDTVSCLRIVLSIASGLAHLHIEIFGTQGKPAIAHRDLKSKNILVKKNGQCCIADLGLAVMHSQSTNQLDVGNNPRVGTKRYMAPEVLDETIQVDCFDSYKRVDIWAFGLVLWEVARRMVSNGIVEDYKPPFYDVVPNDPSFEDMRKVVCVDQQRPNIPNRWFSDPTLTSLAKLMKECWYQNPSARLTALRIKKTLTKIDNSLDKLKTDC

[24] = system: Epidermal growth factor receptor (Homo sapiens), P00533 [UNDEFINED MUTATION]; conditions: Compound concentration 1000.0 nM
[25] = target: Tyrosine-protein kinase ITK/TSK (Homo sapiens) (UniProt Q08881); conditions: Compound concentration 1000.0 nM
[26] = target: Mitogen-activated protein kinase 12 (Homo sapiens) (UniProt P53778); conditions: Compound concentration 1000.0 nM
[27] = system: Phosphatidylinositol 4,5-bisphosphate 3-kinase catalytic subunit alpha isoform (Homo sapiens), P42336 [I800L]; conditions: Compound concentration 1000.0 nM
[28] = target: Sodium-dependent noradrenaline transporter (Homo sapiens) (UniProt P23975); conditions: Compound concentration 10.0 uM
[29] = target: Serine/threonine-protein kinase WNK4 (Homo sapiens) (UniProt Q96J92); conditions: Compound concentration 1000.0 nM
[30] = target: Macrophage colony-stimulating factor 1 receptor (Homo sapiens) (UniProt P07333); conditions: Compound concentration 1000.0 nM
[31] = target: Histamine H1 receptor (Homo sapiens) (UniProt P35367); conditions: Compound concentration 10.0 uM
[32] = target: Serine/threonine-protein kinase SIK2 (Homo sapiens) (UniProt Q9H0K1); conditions: Compound concentration 1000.0 nM
[33] = target: Casein kinase II subunit alpha' (Homo sapiens) (UniProt P19784); conditions: Compound concentration 1000.0 nM
[34] = target: Serine/threonine-protein kinase PAK 4 (Homo sapiens) (UniProt O96013); conditions: Compound concentration 1000.0 nM
[35] = target: Serine/threonine-protein kinase MRCK gamma (Homo sapiens) (UniProt Q6DT37); conditions: Compound concentration 1000.0 nM
Chain of Serine/threonine-protein kinase MRCK gamma (Homo sapiens) (Q6DT37 whole entry): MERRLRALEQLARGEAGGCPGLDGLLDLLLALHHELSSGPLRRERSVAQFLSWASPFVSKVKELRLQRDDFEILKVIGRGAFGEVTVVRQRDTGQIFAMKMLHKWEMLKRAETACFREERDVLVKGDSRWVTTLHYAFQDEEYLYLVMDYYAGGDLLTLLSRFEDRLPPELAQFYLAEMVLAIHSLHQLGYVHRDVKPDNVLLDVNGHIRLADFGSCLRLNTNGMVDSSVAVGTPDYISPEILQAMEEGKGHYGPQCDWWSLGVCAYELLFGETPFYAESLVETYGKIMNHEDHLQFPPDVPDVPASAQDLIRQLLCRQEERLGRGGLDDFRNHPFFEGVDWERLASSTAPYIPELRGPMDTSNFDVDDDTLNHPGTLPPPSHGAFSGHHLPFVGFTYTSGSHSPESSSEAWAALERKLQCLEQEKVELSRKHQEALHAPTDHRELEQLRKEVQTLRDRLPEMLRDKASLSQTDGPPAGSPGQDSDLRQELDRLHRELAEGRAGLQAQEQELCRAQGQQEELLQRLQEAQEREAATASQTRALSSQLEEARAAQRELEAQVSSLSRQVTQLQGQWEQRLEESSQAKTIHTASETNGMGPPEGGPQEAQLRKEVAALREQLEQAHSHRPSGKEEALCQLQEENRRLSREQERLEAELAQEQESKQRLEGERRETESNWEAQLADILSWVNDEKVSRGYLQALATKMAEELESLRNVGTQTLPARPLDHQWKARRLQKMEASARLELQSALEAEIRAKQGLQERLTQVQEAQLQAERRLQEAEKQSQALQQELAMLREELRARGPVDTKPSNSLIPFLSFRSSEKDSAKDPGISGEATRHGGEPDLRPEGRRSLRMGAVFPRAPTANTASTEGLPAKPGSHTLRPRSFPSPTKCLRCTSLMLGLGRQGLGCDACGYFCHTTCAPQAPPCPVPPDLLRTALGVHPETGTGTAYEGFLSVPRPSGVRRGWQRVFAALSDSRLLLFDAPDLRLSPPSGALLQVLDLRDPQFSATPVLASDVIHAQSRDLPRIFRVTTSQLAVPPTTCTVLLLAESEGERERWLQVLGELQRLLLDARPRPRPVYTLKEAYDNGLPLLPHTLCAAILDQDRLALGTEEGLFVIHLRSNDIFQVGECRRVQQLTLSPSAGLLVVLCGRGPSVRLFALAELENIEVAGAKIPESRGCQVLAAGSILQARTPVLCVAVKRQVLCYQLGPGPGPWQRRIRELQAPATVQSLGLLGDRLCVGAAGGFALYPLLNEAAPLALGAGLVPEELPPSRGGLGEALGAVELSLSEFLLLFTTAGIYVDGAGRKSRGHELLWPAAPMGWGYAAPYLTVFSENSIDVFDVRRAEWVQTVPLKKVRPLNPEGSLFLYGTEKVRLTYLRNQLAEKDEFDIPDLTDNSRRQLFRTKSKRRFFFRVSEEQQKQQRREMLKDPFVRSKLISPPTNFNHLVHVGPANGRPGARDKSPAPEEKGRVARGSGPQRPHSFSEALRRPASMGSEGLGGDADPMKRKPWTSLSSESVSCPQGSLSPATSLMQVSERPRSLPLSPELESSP

[36] = target: Ephrin type-B receptor 2 (Homo sapiens) (UniProt P29323); conditions: Compound concentration 1000.0 nM
[37] = target: Tyrosine-protein kinase JAK1 (Homo sapiens) (UniProt P23458); conditions: Compound concentration 1000.0 nM
[38] = target: 5-hydroxytryptamine receptor 6 (Homo sapiens) (UniProt P50406); conditions: Compound concentration 10.0 uM
[39] = target: Wee1-like protein kinase 2 (Homo sapiens) (UniProt P0C1S8); conditions: Compound concentration 1000.0 nM
[40] = system: Receptor-type tyrosine-protein kinase FLT3 (Homo sapiens), P36888 [R834Q]; conditions: Compound concentration 1000.0 nM
[41] = target: Membrane-associated tyrosine- and threonine-specific cdc2-inhibitory kinase (Homo sapiens) (UniProt Q99640); conditions: Compound concentration 1000.0 nM
Chain of Membrane-associated tyrosine- and threonine-specific cdc2-inhibitory kinase (Homo sapiens) (Q99640 whole entry): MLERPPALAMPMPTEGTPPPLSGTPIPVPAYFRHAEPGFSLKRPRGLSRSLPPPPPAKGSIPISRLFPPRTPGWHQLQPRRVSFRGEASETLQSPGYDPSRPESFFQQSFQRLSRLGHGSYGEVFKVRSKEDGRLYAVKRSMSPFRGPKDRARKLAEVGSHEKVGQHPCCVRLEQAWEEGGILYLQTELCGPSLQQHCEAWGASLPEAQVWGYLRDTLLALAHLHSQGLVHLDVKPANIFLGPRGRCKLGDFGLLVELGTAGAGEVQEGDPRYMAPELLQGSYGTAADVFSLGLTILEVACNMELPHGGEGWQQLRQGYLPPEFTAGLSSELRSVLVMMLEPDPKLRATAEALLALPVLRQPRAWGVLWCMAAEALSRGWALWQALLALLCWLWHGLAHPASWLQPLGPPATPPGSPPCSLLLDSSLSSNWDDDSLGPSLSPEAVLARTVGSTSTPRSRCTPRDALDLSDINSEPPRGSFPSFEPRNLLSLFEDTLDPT

[42] = target: Cytoplasmic tyrosine-protein kinase BMX (Homo sapiens) (UniProt P51813); conditions: Compound concentration 1000.0 nM
Rattus norvegicus = organism: Rattus norvegicus; conditions: Compound concentration 10.0 uM
[43] = system: Tyrosine-protein kinase ABL1 (Homo sapiens), P00519 [E255K]; conditions: Compound concentration 1000.0 nM
[44] = target: Mitogen-activated protein kinase kinase kinase 12 (Homo sapiens) (UniProt Q12852); conditions: Compound concentration 1000.0 nM
[45] = target: ALK tyrosine kinase receptor (Homo sapiens) (UniProt Q9UM73); conditions: Compound concentration 1000.0 nM

C[C@H](c1cccc(C#N)c1)n1cc(Cl)cc(C(N)=O)c1=N [(R)-9s]
active: inhibition [9] 93.3%
inactive: residual activity [1] 81% | residual activity [2] 82% | residual activity [3] 73% | inhibition [4] 18.6% | residual activity [5] 100% | residual activity [6] 100% | residual activity [7] 89% | inhibition [8] 17.7% | residual activity [10] 87% | residual activity [11] 100% | residual activity [12] 91% | residual activity [13] 100% | residual activity [14] 88% | residual activity [15] 78% | inhibition [16] -0.22% | residual activity [17] 96% | residual activity [18] 100% | residual activity [19] 100% | residual activity [20] 68% | residual activity [21] 100% | residual activity [22] 100% | residual activity [23] 88% | residual activity [24] 100% | residual activity [25] 90% | residual activity [26] 100% | residual activity [27] 56% | inhibition [28] -7.01% | residual activity [29] 97% | residual activity [30] 100% | inhibition [31] -6.96% | residual activity [32] 100% | residual activity [33] 100% | residual activity [34] 100% | residual activity [35] 77% | residual activity [36] 66% | residual activity [37] 92% | inhibition [38] 6.03% | residual activity [39] 97% | residual activity [40] 100% | residual activity [41] 100% | residual activity [42] 77% | inhibition (Rattus norvegicus) 10.7% | residual activity [43] 87% | residual activity [44] 100% | residual activity [45] 79%

C[C@@H](c1cccc(C#N)c1)n1cc(Cl)cc(C(N)=O)c1=N [(S)-9s]
inactive: residual activity [1] 98% | residual activity [2] 84% | residual activity [3] 72% | inhibition [4] 13.8% | residual activity [5] 100% | residual activity [6] 100% | residual activity [7] 86% | inhibition [8] 17.4% | residual activity [10] 100% | residual activity [11] 90% | residual activity [12] 77% | residual activity [13] 96% | residual activity [14] 100% | residual activity [15] 85% | inhibition [16] 1.2% | residual activity [17] 96% | residual activity [18] 96% | residual activity [19] 81% | residual activity [20] 74% | residual activity [21] 93% | residual activity [22] 100% | residual activity [23] 96% | residual activity [24] 100% | residual activity [25] 82% | residual activity [26] 73% | residual activity [27] 71% | inhibition [28] -4.73% | residual activity [29] 98% | residual activity [30] 96% | inhibition [31] -9.05% | residual activity [32] 100% | residual activity [33] 100% | residual activity [34] 100% | residual activity [35] 100% | residual activity [36] 80% | residual activity [37] 93% | inhibition [38] 7.75% | residual activity [39] 77% | residual activity [40] 100% | residual activity [41] 100% | residual activity [42] 95% | inhibition (Rattus norvegicus) 1.07% | residual activity [43] 82% | residual activity [44] 100% | residual activity [45] 83%
active: inhibition [9] 60.5%
